Reference: PubChem BioAssay AID248 (DTP/NCI, 2004)
“And” between values parts separate entries of the source, which are not always exact repeats. Equal values may be shown once. Inconclusive results and toxic doses are left out. Cut-off read from the data, not from the text of the source: active = T/C of 150% or more; inactive = T/C below 125%.

System: L1210 leukemia ip in BDF1 mice, survival T/C
Experiment: NCI In Vivo Anticancer Drug Screen. Data for tumor model L1210 Leukemia (intraperitoneal) in B6D2F1 (BDF1) mice
Details: endpoint: mean survival time, higher = longer survival
Procedure, shortened: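 Read-out is survival time, reported as the treated-group measurement over the vehicle-control measurement.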

[1] = dose: 1.56 mg/kg/injection, schedule: Q04DX003 (ip), vehicle: saline
[2] = dose: 3.12 mg/kg/injection, schedule: Q04DX003 (ip), vehicle: saline
[3] = dose: 6.25 mg/kg/injection, schedule: Q04DX003 (ip), vehicle: saline
[4] = dose: 12.5 mg/kg/injection, schedule: Q04DX003 (ip), vehicle: saline
[5] = dose: 25.0 mg/kg/injection, schedule: Q04DX003 (ip), vehicle: saline
[6] = dose: 100.0 mg/kg/injection, schedule: Q01DX009 (ip), vehicle: Klucel (hydroxypropylcellulose) (HPC)
[7] = dose: 100.0 mg/kg/injection, schedule: Q04DX003 (ip), vehicle: Klucel (hydroxypropylcellulose) (HPC)
[8] = dose: 200.0 mg/kg/injection, schedule: Q01DX009 (ip), vehicle: Klucel (hydroxypropylcellulose) (HPC)
[9] = dose: 200.0 mg/kg/injection, schedule: Q04DX003 (ip), vehicle: Klucel (hydroxypropylcellulose) (HPC)
[10] = dose: 400.0 mg/kg/injection, schedule: Q01DX009 (ip), vehicle: Klucel (hydroxypropylcellulose) (HPC)
[11] = dose: 400.0 mg/kg/injection, schedule: Q04DX003 (ip), vehicle: Klucel (hydroxypropylcellulose) (HPC)
[12] = dose: 100.0 mg/kg/injection, schedule: Q01DX001 (ip), vehicle: saline with Tween-80
[13] = dose: 200.0 mg/kg/injection, schedule: Q01DX001 (ip), vehicle: saline with Tween-80
[14] = dose: 400.0 mg/kg/injection, schedule: Q01DX001 (ip), vehicle: saline with Tween-80
[15] = dose: 50.0 mg/kg/injection, schedule: Q01DX009 (ip), vehicle: saline with Tween-80
[16] = dose: 100.0 mg/kg/injection, schedule: Q04DX003 (ip), vehicle: saline with Tween-80
[17] = dose: 200.0 mg/kg/injection, schedule: Q01DX009 (ip), vehicle: saline with Tween-80
[18] = dose: 200.0 mg/kg/injection, schedule: Q04DX003 (ip), vehicle: saline with Tween-80
[19] = dose: 400.0 mg/kg/injection, schedule: Q04DX003 (ip), vehicle: saline with Tween-80
[20] = dose: 100.0 mg/kg/injection, schedule: Q01DX009 (ip), vehicle: saline with Tween-80
[21] = dose: 100.0 mg/kg/injection, schedule: Q04DX002 (ip), vehicle: Klucel (hydroxypropylcellulose) (HPC)
[22] = dose: 200.0 mg/kg/injection, schedule: Q04DX002 (ip), vehicle: Klucel (hydroxypropylcellulose) (HPC)
[23] = dose: 400.0 mg/kg/injection, schedule: Q04DX002 (ip), vehicle: Klucel (hydroxypropylcellulose) (HPC)
[24] = dose: 400.0 mg/kg/injection, schedule: Q01DX009 (ip), vehicle: saline with Tween-80

Measured: T/C

CC(=O)Oc1cc(OC(C)=O)c2ccccc2c1OC(C)=O
inactive: [1] 102 % of control | [2] 106 % of control | [3] 102 % of control | dose: 12.5 mg/kg/injection, schedule: Q01DX001 (ip), vehicle: saline 103 % of control | dose: 25.0 mg/kg/injection, schedule: Q01DX001 (ip), vehicle: saline 97 % of control | dose: 50.0 mg/kg/injection, schedule: Q01DX001 (ip), vehicle: saline 100 % of control

O=C1OC(=O)C(Br)C1Br (configuration not stated)
inactive: [1] 106 % of control | [2] 106 % of control | [3] 95 % of control | [4] 108 % of control | [5] 87 % of control

CCOC(=O)C1C(=O)C(CN(CCCl)CCCl)C(=O)C(C(=O)OCC)C1c1ccc(O)cc1 (configuration not stated)
inactive: [6] 113 % of control | [7] 106 % of control | [8] 112 % of control | [9] 110 % of control | [10] 110 % of control | [11] 114 % of control

CC1(C)N([O-])[N+](=O)C1(C)C
inactive: [12] 97 % of control | [13] 101 % of control | [14] 101 % of control

O=C1Cc2ccccc2CN1
inactive: dose: 75.0 mg/kg/injection, schedule: Q01DX001 (ip), vehicle: acetone 100 % of control | dose: 150.0 mg/kg/injection, schedule: Q01DX001 (ip), vehicle: acetone 97 % of control

CNC(=O)Oc1ccc(-c2ccccc2)cc1Cl
inactive: dose: 25.0 mg/kg/injection, schedule: Q01DX009 (ip), vehicle: saline with Tween-80 103 % of control and 106 % of control | [15] 94 % of control and 111 % of control | [12] 101 % of control | dose: 100.0 mg/kg/injection, schedule: Q04DX002 (ip), vehicle: saline with Tween-80 93 % of control and 101 % of control (2×) | [16] 98 % of control | [13] 93 % of control | [17] 94 % of control | dose: 200.0 mg/kg/injection, schedule: Q04DX002 (ip), vehicle: saline with Tween-80 96 % of control and 97 % of control and 100 % of control | [18] 95 % of control | [14] 104 % of control | dose: 400.0 mg/kg/injection, schedule: Q04DX002 (ip), vehicle: saline with Tween-80 103 % of control and 107 % of control and 113 % of control | [19] 98 % of control

CCN(CC)CCNc1nc(-c2cc(C(F)(F)F)cc(C(F)(F)F)c2)nc(C(Cl)(Cl)Cl)n1
inactive: dose: 100.0 mg/kg/injection, schedule: Q04DX002 (ip), vehicle: saline 88 % of control | dose: 200.0 mg/kg/injection, schedule: Q04DX002 (ip), vehicle: saline 101 % of control | dose: 400.0 mg/kg/injection, schedule: Q04DX002 (ip), vehicle: saline 88 % of control

C=C(C)C1CCC2CC/C(=N\Nc3ccccc3C(=O)OC)C=C2C1 (configuration not stated)
inactive: [7] 90 % of control | [9] 94 % of control

CN(C)CC1CCCCC1OC(=O)c1ccccc1 (configuration not stated)
inactive: [15] 91 % of control | [20] 94 % of control

Cc1ccc2cccc(O)c2n1
inactive: dose: 12.5 mg/kg/injection, schedule: Q04DX002 (ip), vehicle: Klucel (hydroxypropylcellulose) (HPC) 94 % of control | dose: 25.0 mg/kg/injection, schedule: Q04DX002 (ip), vehicle: Klucel (hydroxypropylcellulose) (HPC) 88 % of control | dose: 50.0 mg/kg/injection, schedule: Q04DX002 (ip), vehicle: Klucel (hydroxypropylcellulose) (HPC) 102 % of control

CNC(=O)Nc1c(C)cccc1C
inactive: [6] 93 % of control | [7] 106 % of control | [8] 93 % of control | [9] 101 % of control | [10] 97 % of control | [11] 98 % of control

CCCCCCCCCCCCCCCCC1CCCC2(CCCC2)C1 (configuration not stated)
inactive: [12] 103 % of control | [13] 92 % of control | [14] 101 % of control

Oc1ccccc1C=NCCN=Cc1ccccc1O.[Ni]
inactive: dose: 88.0 mg/kg/injection, schedule: Q01DX001 (ip), vehicle: other 109 % of control | dose: 100.0 mg/kg/injection, schedule: Q01DX001 (ip), vehicle: other 100 % of control | dose: 133.0 mg/kg/injection, schedule: Q01DX001 (ip), vehicle: other 107 % of control | dose: 200.0 mg/kg/injection, schedule: Q01DX001 (ip), vehicle: other 108 % of control

Cc1cccc(Nc2nc(N)nc(N)c2N=O)c1
inactive: dose: 100.0 mg/kg/injection, schedule: Q01DX Z (ip), vehicle: methylcellulose (MC) 102 % of control | [21] 101 % of control | dose: 200.0 mg/kg/injection, schedule: Q01DX Z (ip), vehicle: methylcellulose (MC) 97 % of control | [22] 94 % of control | [23] 101 % of control

CCCCCCCCNC12CC3CC(CC(C3)C1)C2
inactive: dose: 3.12 mg/kg/injection, schedule: Q01DX009 (ip), vehicle: saline 99 % of control | dose: 6.25 mg/kg/injection, schedule: Q01DX009 (ip), vehicle: saline 89 % of control | dose: 12.5 mg/kg/injection, schedule: Q01DX009 (ip), vehicle: saline 87 % of control | [4] 110 % of control | dose: 25.0 mg/kg/injection, schedule: Q01DX009 (ip), vehicle: saline 92 % of control | [5] 109 % of control

Nc1cc(S(=O)(=O)c2ccc(O)c(N)c2)ccc1O
inactive: [20] 105 % of control | [16] 103 % of control | [17] 107 % of control | [18] 104 % of control | [24] 109 % of control | [19] 97 % of control

Cc1ccc(S(=O)(=O)Nc2ccccc2)c(C(O)(c2ccccc2)c2ccccc2)c1
inactive: [20] 91 % of control | [17] 96 % of control | [24] 93 % of control

CCC(=O)c1cc([N+](=O)[O-])ccc1NC(C)=O
inactive: [20] 97 % of control | [17] 94 % of control | [24] 94 % of control

CCOC(=O)/C(C#N)=C1\CCc2cc(OC)ccc21
inactive: dose: 100.0 mg/kg/injection, schedule: Q01DX001 (ip), vehicle: saline 96 % of control | dose: 100.0 mg/kg/injection, schedule: Q01DX009 (ip), vehicle: other 103 % of control | dose: 200.0 mg/kg/injection, schedule: Q01DX001 (ip), vehicle: saline 90 % of control | dose: 200.0 mg/kg/injection, schedule: Q01DX009 (ip), vehicle: other 99 % of control | dose: 400.0 mg/kg/injection, schedule: Q01DX001 (ip), vehicle: saline 92 % of control | dose: 400.0 mg/kg/injection, schedule: Q01DX009 (ip), vehicle: other 97 % of control

CCCCCCNC(=O)COc1ccc(Cl)cc1
inactive: [21] 97 % of control | [22] 93 % of control | [23] 101 % of control

CCCCCCCCCCc1nc(N)nc(NCCc2ccccc2)n1
inactive: [21] 106 % of control | [22] 89 % of control | [23] 100 % of control

COc1cccc(/C=C2\N=C(c3ccccc3)OC2=O)c1
inactive: [20] 102 % of control | [16] 97 % of control | [17] 107 % of control | [18] 94 % of control | [24] 102 % of control and 90 % of control | [19] 93 % of control

Cc1cc(C)c(F)c(Br)c1N
inactive: dose: 50.0 mg/kg/injection, schedule: Q04DX003 (ip), vehicle: Klucel (hydroxypropylcellulose) (HPC) 95 % of control | dose: 100.0 mg/kg/injection, schedule: Q01DX001 (ip), vehicle: Klucel (hydroxypropylcellulose) (HPC) 97 % of control | [7] 95 % of control | dose: 200.0 mg/kg/injection, schedule: Q01DX001 (ip), vehicle: Klucel (hydroxypropylcellulose) (HPC) 101 % of control | [9] 106 % of control | dose: 400.0 mg/kg/injection, schedule: Q01DX001 (ip), vehicle: Klucel (hydroxypropylcellulose) (HPC) 100 % of control

Cc1ccc(S(=O)(=O)N(CC(=O)O)c2c[nH]c(C(=O)O)c2)cc1
inactive: dose: 100.0 mg/kg/injection, schedule: Q01DX009 (ip), vehicle: acetone 92 % of control | dose: 200.0 mg/kg/injection, schedule: Q01DX009 (ip), vehicle: acetone 95 % of control | dose: 400.0 mg/kg/injection, schedule: Q01DX009 (ip), vehicle: acetone 88 % of control
